Source: patent US20170079989A1, “METHOD FOR TREATMENT OF OSTEOARTHRITIS AND OTHER JOINT RELATED INJURIES AND CONDITIONS” (priority 2010, published 2017)
“Also recorded” adds a separate entry of the source.

Legend:
[1] = In vitro release (elution testing) of injectable formulations in sterile PBS at 37 degrees C.; type: physicochemical; details: drug encapsulated in SAIB nanoparticles suspended in hyaluronic acid solution, dialysis tubing, 50 rpm, UV-Vis
Protocol: About 21 mg of curcumin was dissolved in 2 ml of DMSO/SAIB (9:1 ratio of DMSO to SAIB in ethanol). The concentration of SAIB in the solution was about 104 mg per ml of DMSO/SAIB/Ethanol solution. This solution of curcumin/DMSO/SAIB/Ethanol was added drop wise to PBS while stirring. The nanoparticles of curcumin/SAIB formed when the DMSO/ethanol diffused out into the PBS (FIG. 3). 0.5 ml of the nanoparticle solution was then mixed with 2.5 ml of 1% Hyaluronic acid (HA) in PBS. The final mixture was then used for testing of injectability and for elution study.
Elution testing of various injectable formulations as described in example 2 was carried out in sterile PBS and at 37 degrees C. Drugs such as rapamycin, curcumin and sulfasalazine were used in the testing of various formulations. Each formulation was pipetted into a segment of dialysis tubing (Sigma Cat. D0530) with both ends of the tubing sealed. The dialysis tubing with the formulation was then placed inside a container and 15 ml of sterile PBS was added to the container. The container was then placed in an incubator shaker at 37 degrees C., 50 rpm and samples were withdrawn at regular time intervals and replaced with fresh sterile PBS. The samples were measured photometrically (UV-Vis) at a wavelength of 420 nanometers for curcumin, 359 nanometers for sulfasalazine and 278 nanometers for rapamycin.

[2] = cited from earlier work
[3] = Injectable formulation of sulfasalazine in SAIB/DMSO injected into an aqueous environment; type: physicochemical; details: drug/DMSO mixed 1:1 with SAIB gel (90% in ethanol)
Source text: FIG. 2 is a drawing of the injectable formulation of FIG. 1 when injected into an aqueous environment. The liquid formulation of drug, DMSO and SAIB formed a liquid gel after the ethanol component in the SAIB and DMSO diffused out into the water. […] Controlled release of the drug over a long period of time can be beneficial to treat chronic inflammation in osteoarthritis. A known amount of sulfasalazine was weighed and dissolved in DMSO. This solution of sulfasalazine/DMSO was then mixed in 1:1 ratio with SAIB gel (90% by weight in ethanol). The mixture as shown in FIG. 1 can be loaded into a syringe and injected through a 20 GA needle. The mixture formed a gel that encapsulated the drug after the solvents (DMSO and ethanol) diffused out of the aqueous environment (FIG. 2).

SMILES	release kinetics of drug from the injectable formulation [1]	water solubility [2]	release of drug from the SAIB gel [3]
COc1cc(/C=C/C(=O)CC(=O)/C=C/c2ccc(O)c(OC)c2)ccc1O [curcumin, Curcumin]	released over an extended period of time; also recorded: controlled release manner		
O=C(O)c1cc(/N=N/c2ccc(S(=O)(=O)Nc3ccccn3)cc2)ccc1O [sulfasalazine, Sulfasalazine]	high at the beginning and level off quickly in a few days	slightly water soluble	slowly diffused out of the gel in a controlled release manner
